# Experimental data from paper PMC6025150, “Synthesis, enzyme inhibitory kinetics mechanism and computational study of N-(4-methoxyphenethyl)-N-(substituted)-4-methylbenzenesulfonamides as novel therapeutic agents for Alzheimer’s disease” (PeerJ, 2018).
# Several values for one entry are separate records, joined by “and”; a condition that tells them apart may be missing. Equal values may be shown once.
# Biological target: T1, acetylcholinesterase (from human erythrocytes) (Homo sapiens, UniProt P22303)
# T1 construct: acetylcholinesterase (from human erythrocytes, purchased from Sigma-Aldrich, Seoul, Korea); purchased Sigma-Aldrich, Seoul, Korea; host or cells: human erythrocytes (natural source)
# Experiment: biochemical
# Design: LogIC50 (best-fit value): unit not given here
# Details: Conc: 0.0306373 (unit not given); Raw Data of IC50 sheet
# Experimental: The inhibitory activities of synthesized compounds were determined spectrophotometrically using acetylthiocholine iodide as substrate by following the method of ([Ellman et al., 1961]). Briefly, The assay solution consisted of 180 µL of 50 mM Tris-HCl buffer, pH 7.7, containing (0.1 M sodium chloride and 0.02 M magnesium chloride) and 20 µL of enzyme (AChE, EC 3.1.1.7), acetylcholinesterase (from human erythrocytes, purchased from Sigma-Aldrich, Seoul, Korea) solution (50 U per well); increasing concentrations of test compounds (10 µL) were added to the assay solution and pre incubated for 30 min at 4 °C. After that 5,5′ Dithiobis (2 nitrobenzoic acid) (0.3 mM, 20 µL) and acetylthiocholine iodide (1.8 mM, 20 µL) were added to the reaction mixture and incubated at 37 °C for 10 min, followed by the measurement of absorbance at 412 nm. For non-enzymatic reaction, the assays were carried out with a blank containing all components except acetylcholinesterase. The assay measurements were measured at 412 nm using a micro plate reader (OPTI Max Tunable; Molecular Devices, Sunnyvale, CA, USA) having a wave-length range from 340–850 nm; for 96 well plates. The reaction rates were compared and percent inhibition was calculated due to the presence of tested inhibitors. […] Each concentration was analyzed in three independent experiments run in triplicate. The IC50 values were calculated by nonlinear regression using GraphPad Prism 5.0.
# The % of Inhibition of Acetylcholinesterase was calculated as following: Inhibition%=B−S∕B×100. Here, the B and S are the absorbance’s for the blank and samples.
# T1 sequence (P22303 32-617 isoform P22303-2 limits assumed): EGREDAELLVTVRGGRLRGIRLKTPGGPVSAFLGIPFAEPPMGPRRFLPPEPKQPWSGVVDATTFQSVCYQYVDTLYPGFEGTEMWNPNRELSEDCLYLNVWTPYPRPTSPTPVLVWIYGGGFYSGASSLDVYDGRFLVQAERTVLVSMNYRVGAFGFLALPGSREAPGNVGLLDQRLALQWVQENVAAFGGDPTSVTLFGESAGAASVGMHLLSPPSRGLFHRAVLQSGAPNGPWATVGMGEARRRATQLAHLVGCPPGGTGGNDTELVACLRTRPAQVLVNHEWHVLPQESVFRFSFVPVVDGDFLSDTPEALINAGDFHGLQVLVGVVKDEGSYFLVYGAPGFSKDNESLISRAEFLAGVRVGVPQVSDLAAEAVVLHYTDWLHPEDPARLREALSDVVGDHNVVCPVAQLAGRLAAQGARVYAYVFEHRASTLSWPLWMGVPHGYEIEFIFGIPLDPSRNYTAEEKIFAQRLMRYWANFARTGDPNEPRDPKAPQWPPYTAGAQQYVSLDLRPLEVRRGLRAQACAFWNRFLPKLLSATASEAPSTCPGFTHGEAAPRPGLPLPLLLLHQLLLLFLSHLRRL
row,Compound,"inhibition, single experiment"
1,"COc1ccc(CCN(Cc2cccc(C)c2)S(=O)(=O)c2ccc(C)cc2)cc1 [Compound 5i, N-(4-Methoxyphenethyl)-4-methyl-N-(3-methylbenzyl) benzensulfonamide]",38.1497 and 38.771

# Same assay, conditions: Conc: 0.0306373 (unit not given); mean of three; Raw Data of IC50 sheet
row,Compound,inhibition (Mean)
1,"COc1ccc(CCN(Cc2cccc(C)c2)S(=O)(=O)c2ccc(C)cc2)cc1 [Compound 5i, N-(4-Methoxyphenethyl)-4-methyl-N-(3-methylbenzyl) benzensulfonamide]",38.1601

# Same assay, conditions: Conc: 0.0612745 (unit not given); Raw Data of IC50 sheet
row,Compound,"inhibition, single experiment"
1,"COc1ccc(CCN(Cc2cccc(C)c2)S(=O)(=O)c2ccc(C)cc2)cc1 [Compound 5i, N-(4-Methoxyphenethyl)-4-methyl-N-(3-methylbenzyl) benzensulfonamide]",45.4473 and 46.02

# Same assay, conditions: Conc: 0.0612745 (unit not given); mean of three; Raw Data of IC50 sheet
row,Compound,inhibition (Mean)
1,"COc1ccc(CCN(Cc2cccc(C)c2)S(=O)(=O)c2ccc(C)cc2)cc1 [Compound 5i, N-(4-Methoxyphenethyl)-4-methyl-N-(3-methylbenzyl) benzensulfonamide]",45.6873

# Same assay, conditions: Conc: 0.122549 (unit not given); Raw Data of IC50 sheet
row,Compound,"inhibition, single experiment"
1,"COc1ccc(CCN(Cc2cccc(C)c2)S(=O)(=O)c2ccc(C)cc2)cc1 [Compound 5i, N-(4-Methoxyphenethyl)-4-methyl-N-(3-methylbenzyl) benzensulfonamide]",56.7855 and 56.3378

# Same assay, conditions: Conc: 0.122549 (unit not given); mean of three; Raw Data of IC50 sheet
row,Compound,inhibition (Mean)
1,"COc1ccc(CCN(Cc2cccc(C)c2)S(=O)(=O)c2ccc(C)cc2)cc1 [Compound 5i, N-(4-Methoxyphenethyl)-4-methyl-N-(3-methylbenzyl) benzensulfonamide]",56.078

# Same assay, conditions: Conc: 0.245098 (unit not given); Raw Data of IC50 sheet
row,Compound,"inhibition, single experiment"
1,"COc1ccc(CCN(Cc2cccc(C)c2)S(=O)(=O)c2ccc(C)cc2)cc1 [Compound 5i, N-(4-Methoxyphenethyl)-4-methyl-N-(3-methylbenzyl) benzensulfonamide]",70.5479 and 70.7214

# Same assay, conditions: Conc: 0.245098 (unit not given); mean of three; Raw Data of IC50 sheet
row,Compound,inhibition (Mean)
1,"COc1ccc(CCN(Cc2cccc(C)c2)S(=O)(=O)c2ccc(C)cc2)cc1 [Compound 5i, N-(4-Methoxyphenethyl)-4-methyl-N-(3-methylbenzyl) benzensulfonamide]",71.0257

# Same assay, conditions: Conc: 0.490196 (unit not given); Raw Data of IC50 sheet
row,Compound,"inhibition, single experiment"
1,"COc1ccc(CCN(Cc2cccc(C)c2)S(=O)(=O)c2ccc(C)cc2)cc1 [Compound 5i, N-(4-Methoxyphenethyl)-4-methyl-N-(3-methylbenzyl) benzensulfonamide]",74.2589 and 75.8888

# Same assay, conditions: Conc: 0.490196 (unit not given); mean of three; Raw Data of IC50 sheet
row,Compound,inhibition (Mean)
1,"COc1ccc(CCN(Cc2cccc(C)c2)S(=O)(=O)c2ccc(C)cc2)cc1 [Compound 5i, N-(4-Methoxyphenethyl)-4-methyl-N-(3-methylbenzyl) benzensulfonamide]",75.1591

# Same assay, conditions: Conc: 0.980392 (unit not given); Raw Data of IC50 sheet
row,Compound,"inhibition, single experiment"
1,"COc1ccc(CCN(Cc2cccc(C)c2)S(=O)(=O)c2ccc(C)cc2)cc1 [Compound 5i, N-(4-Methoxyphenethyl)-4-methyl-N-(3-methylbenzyl) benzensulfonamide]",78.1111 and 76.8876

# Same assay, conditions: Conc: 0.980392 (unit not given); mean of three; Raw Data of IC50 sheet
row,Compound,inhibition (Mean)
1,"COc1ccc(CCN(Cc2cccc(C)c2)S(=O)(=O)c2ccc(C)cc2)cc1 [Compound 5i, N-(4-Methoxyphenethyl)-4-methyl-N-(3-methylbenzyl) benzensulfonamide]",77.3479

# Same assay, conditions: Conc: 1.96078 (unit not given); Raw Data of IC50 sheet
row,Compound,"inhibition, single experiment"
1,"COc1ccc(CCN(Cc2cccc(C)c2)S(=O)(=O)c2ccc(C)cc2)cc1 [Compound 5i, N-(4-Methoxyphenethyl)-4-methyl-N-(3-methylbenzyl) benzensulfonamide]",87.2875 and 87.9775

# Same assay, conditions: Conc: 1.96078 (unit not given); mean of three; Raw Data of IC50 sheet
row,Compound,inhibition (Mean)
1,"COc1ccc(CCN(Cc2cccc(C)c2)S(=O)(=O)c2ccc(C)cc2)cc1 [Compound 5i, N-(4-Methoxyphenethyl)-4-methyl-N-(3-methylbenzyl) benzensulfonamide]",87.5273

# Same assay, conditions: Conc: 3.92157 (unit not given); Raw Data of IC50 sheet
row,Compound,"inhibition, single experiment"
1,"COc1ccc(CCN(Cc2cccc(C)c2)S(=O)(=O)c2ccc(C)cc2)cc1 [Compound 5i, N-(4-Methoxyphenethyl)-4-methyl-N-(3-methylbenzyl) benzensulfonamide]",97.778 and 97.9734

# Same assay, conditions: Conc: 3.92157 (unit not given); mean of three; Raw Data of IC50 sheet
row,Compound,inhibition (Mean)
1,"COc1ccc(CCN(Cc2cccc(C)c2)S(=O)(=O)c2ccc(C)cc2)cc1 [Compound 5i, N-(4-Methoxyphenethyl)-4-methyl-N-(3-methylbenzyl) benzensulfonamide]",97.9676

# Same assay, conditions: Concentration 0.0306373 (unit not given); IC50 Raw Data sheet
row,Compound,% inhibition [%]
1,"COc1ccc(CCN(Cc2cccc(C)c2)S(=O)(=O)c2ccc(C)cc2)cc1 [Compound 5i, N-(4-Methoxyphenethyl)-4-methyl-N-(3-methylbenzyl) benzensulfonamide]",37.5596

# Same assay, conditions: Concentration 0.0612745 (unit not given); IC50 Raw Data sheet
row,Compound,% inhibition [%]
1,"COc1ccc(CCN(Cc2cccc(C)c2)S(=O)(=O)c2ccc(C)cc2)cc1 [Compound 5i, N-(4-Methoxyphenethyl)-4-methyl-N-(3-methylbenzyl) benzensulfonamide]",45.5947

# Same assay, conditions: Concentration 0.122549 (unit not given); IC50 Raw Data sheet
row,Compound,% inhibition [%]
1,"COc1ccc(CCN(Cc2cccc(C)c2)S(=O)(=O)c2ccc(C)cc2)cc1 [Compound 5i, N-(4-Methoxyphenethyl)-4-methyl-N-(3-methylbenzyl) benzensulfonamide]",55.1106

# Same assay, conditions: Concentration 0.245098 (unit not given); IC50 Raw Data sheet
row,Compound,% inhibition [%]
1,"COc1ccc(CCN(Cc2cccc(C)c2)S(=O)(=O)c2ccc(C)cc2)cc1 [Compound 5i, N-(4-Methoxyphenethyl)-4-methyl-N-(3-methylbenzyl) benzensulfonamide]",71.8079

# Same assay, conditions: Concentration 0.490196 (unit not given); IC50 Raw Data sheet
row,Compound,% inhibition [%]
1,"COc1ccc(CCN(Cc2cccc(C)c2)S(=O)(=O)c2ccc(C)cc2)cc1 [Compound 5i, N-(4-Methoxyphenethyl)-4-methyl-N-(3-methylbenzyl) benzensulfonamide]",75.3297

# Same assay, conditions: Concentration 0.980392 (unit not given); IC50 Raw Data sheet
row,Compound,% inhibition [%]
1,"COc1ccc(CCN(Cc2cccc(C)c2)S(=O)(=O)c2ccc(C)cc2)cc1 [Compound 5i, N-(4-Methoxyphenethyl)-4-methyl-N-(3-methylbenzyl) benzensulfonamide]",77.0449

# Same assay, conditions: Concentration 1.96078 (unit not given); IC50 Raw Data sheet
row,Compound,% inhibition [%]
1,"COc1ccc(CCN(Cc2cccc(C)c2)S(=O)(=O)c2ccc(C)cc2)cc1 [Compound 5i, N-(4-Methoxyphenethyl)-4-methyl-N-(3-methylbenzyl) benzensulfonamide]",87.3169

# Same assay, conditions: Concentration 3.92157 (unit not given); IC50 Raw Data sheet
row,Compound,% inhibition [%]
1,"COc1ccc(CCN(Cc2cccc(C)c2)S(=O)(=O)c2ccc(C)cc2)cc1 [Compound 5i, N-(4-Methoxyphenethyl)-4-methyl-N-(3-methylbenzyl) benzensulfonamide]",98.1514

# Same assay, conditions: each of three independent experiments; Raw Data of IC50 sheet
row,Compound,"IC50, single experiment"
1,"COc1ccc(CCN(Cc2cccc(C)c2)S(=O)(=O)c2ccc(C)cc2)cc1 [Compound 5i, N-(4-Methoxyphenethyl)-4-methyl-N-(3-methylbenzyl) benzensulfonamide]",0.1949 µg/mL and 0.1984 µg/mL

# Same assay, conditions: from human erythrocytes; mean ± SEM; read-out: Acetylcholinesterase IC50 ± SEM
row,Compound,IC50 [µM]
1,"COc1ccc(CCN(Cc2cccc(C)c2)S(=O)(=O)c2ccc(C)cc2)cc1 [Compound 5i, N-(4-Methoxyphenethyl)-4-methyl-N-(3-methylbenzyl) benzensulfonamide]",0.47 ± 0.0109

# Same assay, conditions: log(inhibitor) vs. response fit, single run; IC50 Raw Data sheet
row,Compound,LogIC50 (best-fit value)
1,"COc1ccc(CCN(Cc2cccc(C)c2)S(=O)(=O)c2ccc(C)cc2)cc1 [Compound 5i, N-(4-Methoxyphenethyl)-4-methyl-N-(3-methylbenzyl) benzensulfonamide]",-0.7362

# Same assay, conditions: log(inhibitor) vs. response fit, single run; unit not given; IC50 Raw Data sheet
row,Compound,IC50 (best-fit value)
1,"COc1ccc(CCN(Cc2cccc(C)c2)S(=O)(=O)c2ccc(C)cc2)cc1 [Compound 5i, N-(4-Methoxyphenethyl)-4-methyl-N-(3-methylbenzyl) benzensulfonamide]",0.1836

# Same assay, conditions: mean converted to uM; Raw Data of IC50 sheet; read-out: IC50
row,Compound,IC50 [µM]
1,"COc1ccc(CCN(Cc2cccc(C)c2)S(=O)(=O)c2ccc(C)cc2)cc1 [Compound 5i, N-(4-Methoxyphenethyl)-4-methyl-N-(3-methylbenzyl) benzensulfonamide]",0.47

# Same assay, conditions: mean of three experiments; Raw Data of IC50 sheet
row,Compound,IC50 (Mean) [µg/mL]
1,"COc1ccc(CCN(Cc2cccc(C)c2)S(=O)(=O)c2ccc(C)cc2)cc1 [Compound 5i, N-(4-Methoxyphenethyl)-4-methyl-N-(3-methylbenzyl) benzensulfonamide]",0.1923
